Our source for the IC50 values is US11767322B2 (BRISTOL-MYERS SQUIBB COMPANY, priority 2020, dated 2023).

Read-outs that look alike come from different tables or passages of the source. Bounds are passed on as bounds.

In experiment [1] the target is T1, His-GST-TVMV-hRIPK1(1-324) (Homo sapiens, UniProt Q13546).
T1 construct: The coding region of human RIPK1(1-324) flanked by NdeI site at 5′ end; made in house; host or cells: Spodoptera frugiperda Sf9 insect cells (baculovirus, Bac-to-Bac)
T1 sequence (Q13546 1-324): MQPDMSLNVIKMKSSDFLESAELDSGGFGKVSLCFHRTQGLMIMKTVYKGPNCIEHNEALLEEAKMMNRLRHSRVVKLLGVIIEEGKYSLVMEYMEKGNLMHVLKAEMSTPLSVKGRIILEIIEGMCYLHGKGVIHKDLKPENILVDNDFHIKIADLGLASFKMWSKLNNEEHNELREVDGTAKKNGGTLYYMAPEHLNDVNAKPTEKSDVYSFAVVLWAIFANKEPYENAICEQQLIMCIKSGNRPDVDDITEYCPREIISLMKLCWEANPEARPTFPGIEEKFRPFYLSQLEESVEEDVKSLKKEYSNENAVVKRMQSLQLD
The experiment can be described thus: biochemical. Format: binding.

Experiment [2] relates to MLKL phosphorylation in HT29-L23 human colorectal adenocarcinoma cells. The experiment can be described thus: MLKL phosphorylation high-content assay. Format: cell-based.
In experiment [3] the target is GST-tagged PIK3Cδ in complex with PIK3R1 (Homo sapiens, UniProt O00329). The experiment in a line: PI3Kδ HTRF binding assay. As to conditions: read-out: PIK3CD IC50. (TR-FRET usually uses a lanthanide donor and a delayed reading to cut background.)
[4] abbreviates: HTRF probe displacement, 1 h at rt, read-out: RIPK1 IC50.
The mark [5] stands for this setting: read-out: pMLKL IC50, HT29-L23 cells, necroptosis induced with TNFα, SMAC mimetic and Z-VAD, 6 h, maximal inhibition defined by Nec1s.
Where [6] appears, read: HTRF probe displacement, 1 h at rt.
[7] abbreviates: Table 22, compounds of the present invention, read-out: RPIK1 IC50.
[8] abbreviates: Homo sapiens, 6 h, read-out: pMLKL IC50, HT29-L23 cells, necroptosis induced with TNFα, SMAC mimetic and Z-VAD, 6 h, maximal inhibition defined by Nec1s.

GST-tagged PIK3Cδ in complex with PIK3R1, sequence (O00329 whole entry): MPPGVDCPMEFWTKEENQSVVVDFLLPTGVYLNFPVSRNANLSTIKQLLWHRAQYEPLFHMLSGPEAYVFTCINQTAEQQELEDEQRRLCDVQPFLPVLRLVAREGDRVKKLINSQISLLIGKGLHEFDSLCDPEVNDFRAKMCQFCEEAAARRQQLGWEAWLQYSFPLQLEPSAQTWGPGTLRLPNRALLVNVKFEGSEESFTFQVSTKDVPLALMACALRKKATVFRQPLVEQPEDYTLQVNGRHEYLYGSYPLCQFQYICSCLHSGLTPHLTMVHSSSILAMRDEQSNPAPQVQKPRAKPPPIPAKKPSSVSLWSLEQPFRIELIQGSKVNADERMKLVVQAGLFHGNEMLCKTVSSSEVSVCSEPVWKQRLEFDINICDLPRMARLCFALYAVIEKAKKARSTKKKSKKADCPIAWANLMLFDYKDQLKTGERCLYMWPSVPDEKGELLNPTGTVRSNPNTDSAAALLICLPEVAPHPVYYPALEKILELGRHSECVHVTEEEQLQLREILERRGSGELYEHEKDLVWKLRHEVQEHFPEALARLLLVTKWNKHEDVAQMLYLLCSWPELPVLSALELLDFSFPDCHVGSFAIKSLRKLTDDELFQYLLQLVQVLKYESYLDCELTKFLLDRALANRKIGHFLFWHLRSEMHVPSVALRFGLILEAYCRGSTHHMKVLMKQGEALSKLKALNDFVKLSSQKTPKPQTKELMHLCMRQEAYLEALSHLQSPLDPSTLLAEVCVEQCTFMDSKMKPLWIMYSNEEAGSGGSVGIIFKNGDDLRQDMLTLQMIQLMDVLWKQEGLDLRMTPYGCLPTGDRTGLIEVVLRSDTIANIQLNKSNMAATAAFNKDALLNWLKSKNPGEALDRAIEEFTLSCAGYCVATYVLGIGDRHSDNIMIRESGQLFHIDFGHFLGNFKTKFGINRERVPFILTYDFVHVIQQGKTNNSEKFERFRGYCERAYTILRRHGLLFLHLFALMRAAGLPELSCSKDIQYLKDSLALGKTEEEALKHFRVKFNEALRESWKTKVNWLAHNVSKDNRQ
GST-tagged PIK3Cδ in complex with PIK3R1, sequence (P27986 whole entry partner): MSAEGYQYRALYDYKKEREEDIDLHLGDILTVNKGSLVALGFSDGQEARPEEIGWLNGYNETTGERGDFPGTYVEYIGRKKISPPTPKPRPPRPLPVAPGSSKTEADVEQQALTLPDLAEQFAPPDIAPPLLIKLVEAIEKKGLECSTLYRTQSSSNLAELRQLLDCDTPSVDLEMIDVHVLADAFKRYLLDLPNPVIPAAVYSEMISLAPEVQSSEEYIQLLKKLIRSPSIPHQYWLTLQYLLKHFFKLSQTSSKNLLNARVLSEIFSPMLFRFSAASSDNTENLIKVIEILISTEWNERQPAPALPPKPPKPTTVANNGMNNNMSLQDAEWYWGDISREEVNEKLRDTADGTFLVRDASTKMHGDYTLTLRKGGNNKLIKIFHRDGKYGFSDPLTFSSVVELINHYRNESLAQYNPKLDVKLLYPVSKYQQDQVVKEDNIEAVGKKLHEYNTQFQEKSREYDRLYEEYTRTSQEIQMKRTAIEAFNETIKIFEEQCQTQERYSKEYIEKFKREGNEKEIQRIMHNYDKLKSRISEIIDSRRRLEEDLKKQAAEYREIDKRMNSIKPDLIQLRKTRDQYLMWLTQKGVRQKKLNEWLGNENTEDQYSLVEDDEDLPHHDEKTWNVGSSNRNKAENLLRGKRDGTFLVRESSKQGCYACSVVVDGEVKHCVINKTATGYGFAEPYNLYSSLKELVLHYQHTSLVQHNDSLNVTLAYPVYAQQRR

A word on the IC50: it is the concentration at which inhibition is half-maximal. Turning to `Cc1ccc(-c2ccn3nc(N)nc3c2)c(F)c1C(=O)NC(C)CC(O)c1ccc(F)cc1` (single isomer, unassigned) [Example 39, 3-(2-amino-[1,2,4]triazolo[1,5-a]pyridin-7-yl)-2-fluoro-N-(4-(4-fluorophenyl)-4-hydroxybutan-2-yl)-6-methylbenzamide], the IC50 was 163 nM in experiment [1] (setting [4]), 397 nM in experiment [2] (setting [5]) and over 15000 nM in experiment [3] (setting [6]).

Consider `Cc1ccc(-c2ccn3nc(N)nc3c2)c(F)c1C(=O)NCCC(O)C1CCCCC1` (single isomer, unassigned) [Example 42, 3-(2-amino-[1,2,4]triazolo[1,5-a]pyridin-7-yl)-N-(3-cyclohexyl-3-hydroxypropyl)-2-fluoro-6-methylbenzamide], for which the IC50 is 1.3 nM in experiment [1] (setting [4]), 2.8 nM in experiment [2] (setting [5]) and over 15000 nM in experiment [3] (setting [6]).

Consider `Cc1ccc(-c2ccn3nc(N)nc3c2)c(F)c1C(=O)NCCC(O)c1ccccc1F` (single isomer, unassigned) [Example 70, 3-(2-amino-[1,2,4]triazolo[1,5-a]pyridin-7-yl)-2-fluoro-N-(3-(2-fluorophenyl)-3-hydroxypropyl)-6-methylbenzamide], for which the results for the IC50 in experiment [1] (setting [4]), in experiment [2] (setting [5]) and in experiment [3] (setting [6]) were 11 nM, 8.1 nM and over 15000 nM, respectively.

Consider `Cc1ccc(-c2ccn3nc(N)nc3c2)c(F)c1C(=O)NCC[C@@H](O)c1ccc(Cl)cc1` [Example 152, (R)-3-(2-amino-[1,2,4]triazolo[1,5-a]pyridin-7-yl)-N-(3-(4-chlorophenyl)-3-hydroxypropyl)-2-fluoro-6-methylbenzamide], for which the IC50 in experiment [1] (setting [4]) was 2.3 nM; in experiment [1] (setting [7]), 2.3 nM; in experiment [2] (setting [8]), 0.5 nM; in experiment [2] (Homo sapiens, read-out: pMLKL IC50, Table 22, compounds of the present invention), 0.5 nM; in experiment [3] (setting [6]) it was over 15000 nM.

As for `Nc1nc2cc(-c3ccc(Cl)c(C(=O)NC[C@@H](F)[C@H](O)c4ccc(F)cc4)c3F)ccn2n1` (single isomer, unassigned) [Example 297], the IC50 in experiment [1] (setting [4]) is 3.7 nM; in experiment [2] (setting [8]), 1.6 nM; in experiment [3] (setting [6]), over 15000 nM.

Take `COc1cc(Cl)ccc1C(O)CCNC(=O)c1c(C)ccc(-c2ccn3nc(N)nc3c2)c1F` (single isomer, unassigned) [Example 65, 3-(2-amino-[1,2,4]triazolo[1,5-a]pyridin-7-yl)-N-(3-(4-chloro-2-methoxyphenyl)-3-hydroxypropyl)-2-fluoro-6-methylbenzamide]: the values for the IC50 in experiment [1] (setting [4]), in experiment [2] (setting [8]) and in experiment [3] (setting [6]) were 28 nM, 27 nM and over 15000 nM, respectively.

Consider `Cc1ccc(-c2ccn3nc(N)nc3c2)c(F)c1C(=O)NCCC(O)c1cccc(Cl)c1` (stereo not shown) [Example 43, 3-(2-amino-[1,2,4]triazolo[1,5-a]pyridin-7-yl)-N-(3-(3-chlorophenyl)-3-hydroxypropyl)-2-fluoro-6-methylbenzamide], for which the IC50 in experiment [1] (setting [4]) worked out at 3.2 nM; in experiment [2] (setting [8]), 2.6 nM; in experiment [3], 11000 nM.

For the molecule `Cc1ccc(-c2ccn3nc(N)nc3c2)c(F)c1C(=O)NCC(F)(F)C(O)c1ccc(F)cn1` (stereo not shown) [Example 269, 3-{2-amino-[1,2,4]triazolo[1,5-a]pyridin-7-yl}-N-[2,2-difluoro-3-(5-fluoropyridin-2-yl)-3-hydroxypropyl]-2-fluoro-6-methylbenzamide], the IC50 was 4.6 nM in experiment [1] (setting [4]), 1.5 nM in experiment [2] (setting [5]) and over 15000 nM in experiment [3] (setting [6]).

With `Nc1nc2cc(-c3ccc(Cl)c(C(=O)NCCC(O)c4ccc(Cl)cn4)c3F)ccn2n1` (single isomer, unassigned) [Example 82, 3-(2-amino-[1,2,4]triazolo[1,5-a]pyridin-7-yl)-6-chloro-N-(3-(5-chloropyridin-2-yl)-3-hydroxypropyl)-2-fluorobenzamide], the IC50 worked out at 27 nM in experiment [1] (setting [4]), 26 nM in experiment [2] (setting [8]) and 12000 nM in experiment [3] (setting [6]).

On to `Cc1ccc(-c2ccn3nc(N)nc3c2)c(F)c1C(=O)NCCC(O)c1ccccc1F` (single isomer, unassigned) [Example 71, 3-(2-amino-[1,2,4]triazolo[1,5-a]pyridin-7-yl)-2-fluoro-N-(3-(2-fluorophenyl)-3-hydroxypropyl)-6-methylbenzamide], for which the IC50 in experiment [1] (setting [4]) was 18 nM; in experiment [2] (setting [5]), 21 nM; in experiment [3] (setting [6]), over 15000 nM.

Take `Cc1ccc(-c2ccn3nc(N)nc3c2)c(F)c1C(=O)NCCC(c1ccccc1)C(F)(F)F` (single isomer, unassigned) [Example 12, 3-(2-amino-[1,2,4]triazolo[1,5-a]pyridin-7-yl)-2-fluoro-6-methyl-N-(4,4,4-trifluoro-3-phenylbutyl)benzamide]: the concentration for half-maximal inhibition (IC50) in experiment [1] (setting [4]) was 3 nM; in experiment [2] (setting [5]) it was 9.2 nM; in experiment [3] (setting [6]), over 15000 nM.

As to `Cc1ccc(-c2ccn3nc(N)nc3c2)c(F)c1C(=O)NCCC(O)c1ccc(F)cc1` (single isomer, unassigned) [Example 51, 3-(2-amino-[1,2,4]triazolo[1,5-a]pyridin-7-yl)-2-fluoro-N-(3-(4-fluorophenyl)-3-hydroxypropyl)-6-methylbenzamide], the IC50 in experiment [1] (setting [4]) was 3.7 nM; in experiment [2] (setting [5]), 1.8 nM; in experiment [3] (setting [6]), over 15000 nM.

Regarding `Cc1c(F)cc(-c2ccn3nc(N)nc3c2)cc1C(=O)NCCC(C)c1ccccc1` (stereo not shown) [Example 95, 5-{2-amino-[1,2,4]triazolo[1,5-a]pyridin-7-yl}-3-fluoro-2-methyl-N-(3-phenylbutyl)benzamide], the IC50 is 3 nM in experiment [1] (setting [4]), 5.9 nM in experiment [2] (setting [8]) and over 15000 nM in experiment [3] (setting [6]).

As to `Cc1ccc(-c2ccn3nc(N)nc3c2)cc1C(=O)NCC[C@H](O)c1ccc(Cl)cc1` [Example 149, (S)-5-(2-amino-[1,2,4]triazolo[1,5-a]pyridin-7-yl)-N-(3-(4-chlorophenyl)-3-hydroxypropyl)-2-methylbenzamide], the half-maximal inhibitory concentration (IC50) in experiment [1] (setting [4]) is 8.2 nM; in experiment [1] (setting [7]), 8.2 nM; in experiment [2] (Homo sapiens, 6 h, HT29-L23 cells, necroptosis induced with TNFα, SMAC mimetic and Z-VAD, 6 h, maximal inhibition defined by Nec1s, read-out: pMLKL IC50) it was 1.3 nM; in experiment [2] (Homo sapiens, Table 22, compounds of the present invention, read-out: pMLKL IC50), 1.3 nM; in experiment [3] (setting [6]), over 15000 nM.

`Cc1ccc(-c2ccn3nc(N)nc3c2)c(F)c1C(=O)NCCCC1CCCCC1` [Example 52, 3-(2-amino-[1,2,4]triazolo[1,5-a]pyridin-7-yl)-N-(3-cyclohexylpropyl)-2-fluoro-6-methylbenzamide]: the half-maximal inhibitory concentration (IC50) in experiment [1] (setting [4]) was 0.3 nM; in experiment [2] (setting [8]) it was 1.1 nM; in experiment [3] (setting [6]) it was over 15000 nM.

Turning to `Nc1nc2cc(-c3ccc(Cl)c(C(=O)NCC(F)(F)[C@@H](F)c4ccc(F)cc4)c3F)ccn2n1` [Example 282, (S)-3-(2-amino-[1,2,4]triazolo[1,5-a]pyridin-7-yl)-6-chloro-2-fluoro-N-(2,2,3-trifluoro-3-(4-fluorophenyl)propyl)benzamide], the values for the IC50 in experiment [1] (setting [4]), in experiment [2] (setting [8]) and in experiment [3] (setting [6]) were 2.2 nM, 1.1 nM and over 15000 nM, respectively.

On to `Nc1nc2cc(-c3ccc(Cl)c(C(=O)NCC(F)C(O)c4ccc(F)cc4)c3F)ccn2n1` (stereo not drawn) [Example 130, 3-(2-amino-[1,2,4]triazolo[1,5-a]pyridin-7-yl)-6-chloro-2-fluoro-N-(2-fluoro-3-(4-fluorophenyl)-3-hydroxypropyl)benzamide enantiomeric mixture 1], for which the values for the IC50 in experiment [1] (setting [4]), in experiment [2] (setting [8]) and in experiment [3] (setting [6]) were 7.4 nM, 2.9 nM and 4900 nM, respectively.

As for `Cc1ccc(-c2ccn3nc(N)nc3c2)c(F)c1C(=O)NCCC(O)c1ccc(Cl)cc1F` (single isomer, unassigned) [Example 68, 3-(2-amino-[1,2,4]triazolo[1,5-a]pyridin-7-yl)-N-(3-(4-chloro-2-fluorophenyl)-3-hydroxypropyl)-2-fluoro-6-methylbenzamide], the results for the 50% inhibitory concentration (IC50) in experiment [1] (setting [4]), in experiment [2] (setting [8]) and in experiment [3] (setting [6]) were 3.6 nM, 0.6 nM and over 15000 nM, respectively.

As for `Cc1ccc(-c2ccn3nc(N)nc3c2)c(F)c1C(=O)NCCC(C)(C)c1ccccc1` [Example 58, 3-(2-amino-[1,2,4]triazolo[1,5-a]pyridin-7-yl)-2-fluoro-6-methyl-N-(3-methyl-3-phenylbutyl)benzamide], the values for the IC50 in experiment [1] (setting [4]), in experiment [2] (setting [8]) and in experiment [3] (setting [6]) were 2.1 nM, 2.3 nM and over 15000 nM, respectively.

As to `Cc1ccc(-c2ccn3nc(N)nc3c2F)c(F)c1C(=O)NCC[C@H](O)c1ccc(Cl)cc1` [Example 132, (S)-3-(2-amino-8-fluoro-[1,2,4]triazolo[1,5-a]pyridin-7-yl)-N-(3-(4-chlorophenyl)-3-hydroxypropyl)-2-fluoro-6-methylbenzamide], the IC50 in experiment [1] (setting [4]) was 8.4 nM; in experiment [2] (setting [8]), 1.1 nM; in experiment [3] (setting [6]) it was over 15000 nM.

With `Cc1ccc(-c2ccn3nc(N)nc3c2)c(F)c1C(=O)NC(C)CC(O)c1ccc(F)cc1` (single isomer, unassigned) [Example 36, 3-(2-amino-[1,2,4]triazolo[1,5-a]pyridin-7-yl)-2-fluoro-N-(4-(4-fluorophenyl)-4-hydroxybutan-2-yl)-6-methylbenzamide], the IC50 is 4.5 nM in experiment [1] (setting [4]), 2.7 nM in experiment [2] (setting [5]) and over 15000 nM in experiment [3] (setting [6]).
